Test results taken from PubChem BioAssay AID2060343 (Molecular Pharmacology Branch, DTP, NCI, 2025).
Several values for one entry are separate records, joined by “and”; a condition that tells them apart may be missing. Equal values may be shown once.

Test system: 138582-337-R-J1-PDC spheroids with HUVEC/MSC, viability
Test: Anticancer human tumor 138582-337-R-J1-PDC patient-derived Merkel cell tumor cell line growth inhibition [IpAb]
Details: for viability, T/C: stronger effect = lower value
From the text: Combinatorial screen of targeted agents with ipatasertib and abemaciclib in multi-cell type tumor spheroids
A high-throughput screen of multi-cell type tumor spheroids was designed to identify active combinations of targeted small molecules and ipatasertib or abemaciclib. Complex spheroids include a stromal component modeled by human endothelial cells (HUVEC) and fibroblasts modeled by human mesenchymal stem cells (MSCs). The concentration ranges selected for each drug and investigational agent were based upon clinically achievable concentrations if the clinical Cmax of the agent was known.
Compounds. The drugs and investigational agents: ipatasertib (NSC767898), abemaciclib(NSC768073), selumetinib (NSC741078), trametinib (758246), adavosertib (NSC754352), everolimus (NSC733504), sapanisertib (NSC764658), vemurafenib (NSC761431), venetoclax (NSC766270), copanlisib (NSC809693), apelisib (NSC765974), palbociblib (NSC758247), vemurafenib (NSC761431), dabrafenib (NSC764134), ravoxertinib (NSC781343), BMS-387032 (NSC767048), sotorasib (NSC818433), talazoparib (NSC767125) and afursertib (NSC778305), were obtained from the National Cancer Institute (NCI) Developmental Therapeutics Program Chemical Repository. The FDA-approved anticancer drug set is available from the NCI Developmental Therapeutics Program. […] The stock solutions were prepared in dimethyl sulfoxide (DMSO, Sigma-Aldrich, St. Louis, MO, cat. D2650) at 800-fold the tested concentration and stored at -70 degrees C prior to their use. All drugs and investigational agents were tested over a range starting from a high concentration at or near the clinical Cmax and decreasing in half-log increments. If the clinical Cmax for an agent had not been determined, the highest concentration tested was 10 microM.
NCI60 Cell Culture. NCI60 cell lines were obtained from the NCI Developmental Therapeutics Program Tumor Repository. For each lot of cells, the Repository performed Applied Biosystems AmpFLSTR Identifiler testing with PCR amplification to confirm consistency with the published Identifier STR profile for each cell line. Cells were kept in continuous culture for no more than 20 passages. The optimal seeding densities for each of the cell lines at each time point assessed were determined prior to performing the concentration response studies. Briefly, the NCI60 human tumor lines were grown as monolayers in RPMI 1640 medium supplemented with 10% FBS and 2 mmol/L L-glutamine.
An additional 9 lines were from the NCI60 cell line panel including MDA-MB-231 breast carcinoma, MDA-MB-468 breast carcinoma, MCF7 breast carcinoma, Hs578T breast carcinoma, MALME-3M melanoma, SK-MEL-2 melanoma, SK-OV-3 ovarian carcinoma, DU-145 prostate carcinoma, PC-3 prostate carcinoma, all cell lines along with major genetic alterations are listed on Table 2. Pooled donor human umbilical vein endothelial cells (HUVEC, Lonza, cat. CC-2519) and human mesenchymal stem cells (hMSC, Lonza, cat. PT-2501) were purchased from Lonza (Walkersville, MD).
PDMR cell lines were grown in complete medium (DC medium): Dulbecco's modified Eagle's medium (DMEM)/F12 supplemented with 5% fetal bovine serum (FBS), 2 mM L-glutamine, 100 U/mL penicillin and 100 µg/ml streptomycin, 0.4 µg/ml hydrocortisone, 10 ng/ml epidermal growth factor (EGF) recombinant human protein, 24 µg/mL adenine, and 0.1 mg/mL primocin. During culture from frozen stock vials, PDMR cells were cultured in the same medium containing 10 µM Y-27632 (see Table 3). The PDCs were cultured in complete DMEM/F12 media without 10 microM Y-27632 dihydrochloride for at least two passages prior to the screen. The pooled donor HUVEC and hMSC were cultured in endothelial cell growth medium 2 (PromoCell, Heidelberg, Germany, cat. C-22011) and mesenchymal stem cell growth medium 2 (PromoCell, cat. C-28009), respectively. For all experiments, HUVEC and hMSC were used at passages </=5.
[…]
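Also: spheroids exposed to compounds for seven days.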
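For viability, T/C in this document: 100% = DMSO vehicle control viability.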

For `Cc1nc(NC(=O)N2CCCC2C(N)=O)sc1-c1ccnc(C(C)(C)C(F)(F)F)c1` (stereo not given), the viability, T/C (compound 0.0316 µM) was 97.5% and 84.4%, the viability, T/C (compound 0.1 µM) was 80.2% and 88.7% and the viability, T/C (compound 0.316 µM) was 65.3% and 69.1%. The viability, T/C (compound 1 µM) was 59.3% and 53.7%, the viability, T/C (compound 3.16 µM) was 52.5% and 46.1% and the viability, T/C (compound 10 µM) was 29.6% and 18.7%. The IC50 (curve of compound) was 2030 nM and 1790 nM.
For `Cn1cnc2c(F)c(Nc3ccc(Br)cc3Cl)c(C(=O)NOCCO)cc21`, the viability, T/C (compound 0.00949 µM) was 112% and 90.1%, the viability, T/C (compound 0.03 µM) was 96.5% and 82.8% and the viability, T/C (compound 0.0949 µM) was 98.2% and 82.7%. For the same compound, the viability, T/C (compound 0.3 µM) was 116% and 84%, the viability, T/C (compound 0.949 µM) was 109% and 97.7% and the viability, T/C (compound 3 µM) was 146% and 106%. The IC50 (curve of compound) was > 3000 nM.
For `Cn1ncc(Cl)c1-c1cc(C(=O)NC(CN)Cc2cccc(F)c2)sc1Cl` (stereo not given), the viability, T/C (compound 0.0316 µM) was 89.5% and 99.6%, the viability, T/C (compound 0.1 µM) was 80.9% and 77% and the viability, T/C (compound 0.316 µM) was 86.6% and 67.6%. The viability, T/C (compound 1 µM) was 72.8% and 61.9%, the viability, T/C (compound 3.16 µM) was 66.4% and 46% and the viability, T/C (compound 10 µM) was 0.28% and 0.56%. The IC50 (curve of compound) was 4050 nM and 1720 nM.
With `Cn1nccc1Nc1nccc(-c2ccn(C(CO)c3ccc(Cl)c(F)c3)c(=O)c2)n1` (stereo not given) the viability, T/C (compound 0.0316 µM) was 96.2% and 97.2%, the viability, T/C (compound 0.1 µM) was 94.1% and 93.3% and the viability, T/C (compound 0.316 µM) was 106% and 92.3%. For the same compound, the viability, T/C (compound 1 µM) was 109% and 104%, the viability, T/C (compound 3.16 µM) was 124% and 111% and the viability, T/C (compound 10 µM) was 132% and 127%. The IC50 (curve of compound) was > 10000 nM.
In the case of `Cn1ncnc1[C@H]1c2n[nH]c(=O)c3cc(F)cc(c23)N[C@@H]1c1ccc(F)cc1`, the viability, T/C (compound 0.000316 µM) is reported as 104% and 97.7%, the viability, T/C (compound 0.001 µM) is reported as 91% and the viability, T/C (compound 0.00316 µM) is reported as 92.1% and 91.5%. The viability, T/C (compound 0.01 µM) was 86.4% and 86.3%, the viability, T/C (compound 0.0316 µM) was 83% and 86.4% and the viability, T/C (compound 0.1 µM) was 89.5% and 79.1%. The IC50 (curve of compound) was > 100 nM.
`Cn1cnc2c(F)c(Nc3ccc(Br)cc3Cl)c(C(=O)NOCCO)cc21` + CC(C)NCC(C(=O)N1CCN(c2ncnc3c2C(C)CC3O)CC1)c1ccc(Cl)cc1 was tested, and the IC50 (curve of first compound, second compound 0.1 µM) was > 3000 nM, the IC50 (curve of first compound, second compound 0.316 µM) was 1760 nM and the IC50 (curve of first compound, second compound 1 µM) was 328 nM. For the same compound, the IC50 (curve of first compound, second compound 3.16 µM) was 63.7 nM, the IC50 (curve of first compound, second compound 10 µM) was < 9.49 nM and the viability, T/C (second compound 0.1 µM, first compound 0.00949 µM) was 97.8%. It also gave a viability, T/C (second compound 0.1 µM, first compound 0.03 µM) of 88.1%, a viability, T/C (second compound 0.1 µM, first compound 0.0949 µM) of 85.2% and a viability, T/C (second compound 0.1 µM, first compound 0.3 µM) of 83.8%. The viability, T/C (second compound 0.1 µM, first compound 0.949 µM) was 101%, the viability, T/C (second compound 0.1 µM, first compound 3 µM) was 105% and the viability, T/C (second compound 0.316 µM, first compound 0.00949 µM) was 74.9%. The viability, T/C (second compound 0.316 µM, first compound 0.03 µM) was 73.3%, the viability, T/C (second compound 0.316 µM, first compound 0.0949 µM) was 69.6% and the viability, T/C (second compound 0.316 µM, first compound 0.3 µM) was 55%. The viability, T/C (second compound 0.316 µM, first compound 0.949 µM) was 56.6%, the viability, T/C (second compound 0.316 µM, first compound 3 µM) was 46.7% and the viability, T/C (second compound 1 µM, first compound 0.00949 µM) was 58.9%. It also gave a viability, T/C (second compound 1 µM, first compound 0.03 µM) of 68.2%, a viability, T/C (second compound 1 µM, first compound 0.0949 µM) of 56% and a viability, T/C (second compound 1 µM, first compound 0.3 µM) of 47.2%. For the same compound, the viability, T/C (second compound 1 µM, first compound 0.949 µM) was 42.4%, the viability, T/C (second compound 1 µM, first compound 3 µM) was 22.4% and the viability, T/C (second compound 3.16 µM, first compound 0.00949 µM) was 57.1%. It also gave a viability, T/C (second compound 3.16 µM, first compound 0.03 µM) of 64%, a viability, T/C (second compound 3.16 µM, first compound 0.0949 µM) of 42.5% and a viability, T/C (second compound 3.16 µM, first compound 0.3 µM) of 33.4%. For the same compound, the viability, T/C (second compound 3.16 µM, first compound 0.949 µM) was 27.5%, the viability, T/C (second compound 3.16 µM, first compound 3 µM) was 11.3% and the viability, T/C (second compound 10 µM, first compound 0.00949 µM) was 46.1%. For the same compound, the viability, T/C (second compound 10 µM, first compound 0.03 µM) was 46.7%, the viability, T/C (second compound 10 µM, first compound 0.0949 µM) was 33.6% and the viability, T/C (second compound 10 µM, first compound 0.3 µM) was 24.9%. The viability, T/C (second compound 10 µM, first compound 0.949 µM) was 18.6% and the viability, T/C (second compound 10 µM, first compound 3 µM) was 3.49%.
